Test [1] has as its system Antioxidant Response Element (ARE). Nature of the test: ARE luciferase reporter assay in stably transfected HepG2 cells. Format: cell-based, human. The conditions noted are these: individual ingredient at the noted concentration, 48 h, control sulforaphane 10 μM. The procedure:
The formulation including the blend of turmeric, quercetin and rosemary (TQR Blend, also referred to herein as Blend A) was tested to evaluate the ARE of the blend. In particular, the three individual ingredients, turmeric, quercetin and rosemary were tested by themselves and in combination as a blend. In the testing, a conventional assay for determining ARE was utilized. Generally, the assay included the human hepatocyte cell line HepG2 obtained from ATCC of Manassas, Va. that was stably transfected with a vector. The vector contained four repeats of the ARE DNA sequence ([…] ID NO: 1)) upstream of a minimal promoter using the firefly luciferase gene as a reporter. These cells were then treated with the individual ingredients turmeric, quercetin and rosemary, and the TQR Blend in varying concentrations for 48 hours in this and the other noted examples below. The human hepatocytes were lysed, the luciferase substrate, purchased from Biotium of Hayward, Calif., added, and the relative luminescence values were obtained for all samples. The results are shown as a % Response vs. Control. The control substance was sulforaphane at 10 μM.
(A reporter such as luciferase makes a cellular process visible.)

Test [2] deals with HMOX-1 in bovine aortic endothelial cells. Particulars: Motterlini et al. 2000; cited from earlier work.

Each structure is given as a SMILES string.

Turning to `O=c1c(O)c(-c2ccc(O)c(O)c2)oc2cc(O)cc(O)c12` [quercetin], the “% Response vs. Control in ARE assay” value in test [1] (TQR Blend 50 μg/ml at 1:3:5) is on record as “about 50%”; in test [1] (TQR Blend 60 μg/ml at 1:3:5), “about 75%”; in test [1] (TQR Blend 70 μg/ml at 1:3:5), “about 80%”; in test [1] (TQR Blend 80 μg/ml at 1:3:5), “about 90%”.

For `COc1cc(/C=C/C(=O)CC(=O)/C=C/c2ccc(O)c(OC)c2)ccc1O` [curcumin], the “induction of HMOX-1 in endothelial cells” value in test [2] is reported as “potent inducer of HMOX-1”.

Source of the values: patent publication US10201583B2, “Antioxidant dietary supplement and related method” (priority 2012, dated 2019).
